Assay results taken from ChEMBL document CHEMBL1139811 (Bioorg Med Chem Lett, 2007).

Target: T1, Mycobacterial beta-ketoacyl-[acyl-carrier-protein] synthase III (Mycobacterium tuberculosis, UniProt P9WNG3)
T1 sequence (P9WNG3 whole entry): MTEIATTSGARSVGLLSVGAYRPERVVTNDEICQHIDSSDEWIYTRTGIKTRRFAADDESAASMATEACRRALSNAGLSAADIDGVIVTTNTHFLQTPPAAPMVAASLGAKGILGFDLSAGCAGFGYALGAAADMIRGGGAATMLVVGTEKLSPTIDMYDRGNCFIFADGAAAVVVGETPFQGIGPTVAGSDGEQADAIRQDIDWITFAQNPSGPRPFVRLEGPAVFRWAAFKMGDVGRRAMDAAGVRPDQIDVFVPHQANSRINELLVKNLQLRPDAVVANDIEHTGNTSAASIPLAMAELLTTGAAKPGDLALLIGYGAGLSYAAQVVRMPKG
Assay: Inhibition of Mycobacterium tuberculosis FabH

| SMILES | IC50 |
| --- | --- |
| CC1=C(O)C(C)(Cc2ccc(-c3ccc(F)cc3)cc2)SC1=O (stereo not given) | 105 µM |
| CC(=O)c1ccc(-c2ccc(CC3(C)SC(=O)C(C)=C3O)cc2)s1 (stereo not given) | 200 µM |
| CC(=O)c1cccc(-c2ccc(CC3(C)SC(=O)C(C)=C3O)cc2)c1 (stereo not given) | 150 µM |
| CC1=C(O)C(C)(Cc2ccc(-c3ccc(-c4ccccc4)cc3)cc2)SC1=O (stereo not given) | 68 µM |
| CC1=C(O)C(C)(Cc2ccc(-c3ccc(C)s3)cc2)SC1=O (stereo not given) | 86 µM |
| COC(=O)c1ccc(-c2ccc(CC3(C)SC(=O)C(C)=C3O)cc2)cc1 (stereo not given) | 3 µM |
| CC1=C(O)C(C)(Cc2ccc(-c3ccc(C(N)=O)cc3)cc2)SC1=O (stereo not given) | 4 µM |
| CC1=C(O)C(C)(Cc2ccc(-c3cc(F)cc(F)c3)cc2)SC1=O (stereo not given) | 135 µM |
| CC1=C(O)C(C)(Cc2ccc(-c3ccc(C(=O)O)cc3)cc2)SC1=O (stereo not given) | 7 µM |
| CC1=C(O)C(C)(Cc2ccc(-c3cccc(Cl)c3)cc2)SC1=O (stereo not given) | 156 µM |
| CC1=C(O)C(C)(Cc2ccc(C(=O)c3ccccc3)cc2)SC1=O (stereo not given) | 283 µM |
| CC(=O)c1ccc(-c2ccc(CC3(C)SC(=O)C(C)=C3O)cc2)cc1 (stereo not given) | 54 µM |
| CC1=C(O)C(C)(Cc2ccc(-c3ccc(F)c(F)c3)cc2)SC1=O (stereo not given) | 207 µM |
| CC1=C(O)C(C)(Cc2ccc(Oc3ccccc3)cc2)SC1=O (stereo not given) | 15 µM |
| CC1=C(O)C(C)(Cc2ccc(-c3ccc(Cl)cc3)cc2)SC1=O (stereo not given) | 130 µM |
